From PubChem BioAssay (NCI)
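Five compound concentrations were applied to cells in 96-well plates for 48 hours; endpoints were derived by simple linear interpolation of the resulting dose-response curve. GI50: concentration for 50% inhibition of growth. Definition used: TGI = concentration required for complete inhibition of growth.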

Tests used:
Experiment in all cases: NCI tumour cell line growth inhibition, 48 h
[1] = tested on: MOLT-4 leukemia
[2] = tested on: UO-31 renal
[3] = tested on: NCI-H522 lung
[4] = tested on: OVCAR-5 ovarian
[5] = tested on: SNB-75 CNS
[6] = tested on: NCI-H460 lung
[7] = tested on: PC-3 prostate
[8] = tested on: SK-MEL-2 melanoma
[9] = tested on: MCF7 breast
[10] = tested on: SR leukemia

Structure (SMILES) | GI50 [1] [µM] | TGI [1] [µM] | GI50 [2] [µM] | TGI [2] [µM] | GI50 [3] [µM] | TGI [3] [µM] | GI50 [4] [µM] | TGI [4] [µM] | GI50 [5] [µM] | TGI [5] [µM] | GI50 [6] [µM] | TGI [6] [µM] | GI50 [7] [µM] | TGI [7] [µM] | GI50 [8] [µM] | TGI [8] [µM] | GI50 [9] [µM] | TGI [9] [µM] | GI50 [10] [µM] | TGI [10] [µM]
CN(NC(=O)CC(=O)NN(C)C(=S)c1ccc(Cl)cc1)C(=S)c1ccc(Cl)cc1 | 17.6 | > 100 | 10.4 | > 100 | 19.1 | 60.2 | 25.9 | > 100 | 22.5 | > 100 | 4.38 | 63.7 | 10.7 | 56.5 | 22.7 | 81.8 | 18 | > 100 |  | 
O=P1(O)c2ccccc2CS(=O)(=O)Cc2ccccc21 |  | > 100 |  | > 100 |  | > 100 |  | > 100 |  |  |  | > 100 |  | > 100 |  | > 100 |  | > 100 |  | 
COC(=O)C1=Cc2c(OC)cc(OC)c(OC)c2[C@H](c2cc(OC)c(OC)cc2OC)C1C(=O)OC (stereo partly specified) |  | > 100 |  | > 100 |  | > 100 |  | > 100 |  | > 100 |  | > 100 |  |  |  |  |  |  |  | 
CC12C(=O)N(CCN)C(=O)C1C1c3ccccc3C2c2ccccc21 (stereo unspecified) |  | > 100 |  | > 100 |  | > 100 |  | > 100 |  | > 100 |  | > 100 |  |  |  | > 100 |  |  |  | 
COc1cccc(Nc2nccc(Nc3ccc4[nH]ncc4c3)n2)c1 | 0.525 | 2.83 |  |  | 1.48 | 2.86 |  |  | 1.39 | 3.13 | 1.64 | 4.17 | 1.34 | 3.12 | 1.62 | 3.27 | 1.26 | 3.11 | 1.34 | 4.93
O=C1CCC(=O)C(C(=O)CCC(=O)Nc2cccc(Cl)c2)C1 (stereo unspecified) |  | > 100 |  | > 100 |  | > 100 |  | > 100 |  | > 100 |  | > 100 |  |  |  |  |  |  |  | > 100
COc1cc(/C=C/C(=O)c2ccc(Nc3nc(Nc4ccccc4)nc(Nc4ccc(Cl)cc4)n3)cc2)cc(OC)c1OC | 2.65 | > 32.5 | 2.46 | > 32.5 | 13.9 | > 32.5 | 10.4 | > 32.5 | 6.05 | > 32.5 | 8.71 | > 32.5 |  |  | > 32.5 | > 32.5 | 2.02 | > 32.5 | 1.07 | 19.3
CC12OC3CC(O1)C1(C=O)C4CCC5(C)C(c6ccc(=O)oc6)CCC5(O)C4CCC1(C3)O2 (stereo unspecified) |  | 0.244 |  | 0.97 |  | 0.317 |  | 1.19 |  | 1.03 |  | 0.159 |  |  |  | 0.79 |  |  |  | 0.245
CC(C)NC(=O)O/N=C1\CCC2[C@@H]3CC=C4C[C@@H](OC(=O)NC(C)C)CC[C@]4(C)C3CC[C@]12C (stereo partly specified) |  | 4.81 |  | 2.3 |  | 3.4 |  | 4.26 |  | 3.74 |  | 3.06 |  |  |  | 2.9 |  |  |  | 7.69
CC1=NN(c2ccccc2)C(=O)C1N=Nc1ccc(Br)c(C)c1 (stereo unspecified) |  | > 100 |  |  |  |  |  | > 100 |  | > 100 |  | > 100 |  |  |  | > 100 |  |  |  | 
